Patent US5939448A, “Triazole derivative or salt thereof” (SS Pharmaceutical Co., Ltd., priority 1996, dated 1999)
≈ marks a conversion by molar mass, not a printed value. Values belong to the compound of their own block, whether it stands above or below them.

Legend:
[1] = system: C. albicans ATCC 44859; test: Test 1: In vitro antifungal activity against Candida albicans (suppression of mycelial type growth); type: cell-based; settings: ATCC44859, minimum concentration permitting apparent suppression of mycerial type growth, 10% fetal bovine serum added MEM, 37° C., 20 hours, read-out: Terminal Point C. albicans
Description: Test 1: In vitro antifungal activity against Candida albicans
They were incubated at 37° C. for 20 hours in a CO2 gas incubator. After incubation, morphological change of C. albicans was observed under an inverted microscope.

[2] = system: A. fumigatus IFM 40808; test: Test 2: In vitro antifungal activity against Aspergillus fumigatus (MIC); type: cell-based; settings: IFM40808, RPMI 1640 with 0.165M MOPS, pH 7, 35° C., 24 hours
Description: Test 2: In vitro antifungal activity against Aspergillus fumigatus
(§1) They were incubated at 35° C. for 24 hours.

[3] = system: A. flavus IFM 41935; test: Test 3: In vitro antifungal activity against Aspergillus flavus (MIC); type: cell-based; settings: IFM41935, RPMI 1640 with 0.165M MOPS, pH 7, 35° C., 24 hours
Description: Test 3: In vitro antifungal activity against Aspergillus flavus
as §1

[4] = system: C. albicans IFM 40009; test: Test 4: In vivo antifungal activity against Candida albicans (survival of infected mice); set-up: species or system Candida albicans; male ICR (CRJ: CD-1) mouse; settings: oral 1.25 mg/kg each, four times in total; for Mean survival days: 14 days after infection, vs. control ***: p < 0.001, **: p < 0.01; for Survival mice on 14-th day: survivors/mice of group
Description: Test 4: In vivo antifungal activity against Candida albicans
After 4-week-old, male, ICR (CRJ: CD-1) mouse was fasted for 6 hours, C. albicans IFM 40009 was inoculated to a tail vein of the mouse to give an amount of 3.0×10^6 cells/mouse, whereby infection was caused. A control group consisted of 8 mice, while a chemical-administered group consisted of 5 mice. The chemical was orally administered once an hour after the inoculation of the fungus and 24 hours after the inoculation, and once a day consecutively, four times in total, at 1.25 mg/kg each. The survival during 14 days after the infection was counted. In addition, the mean survival days of the control group and the mean survival days of the chemical-administered group were compared and statistically analyzed by the Kaplan-Meire method (Cox mantel test).

Structure (SMILES): CC(=O)OCCSC(F)(F)C(O)(Cn1cncn1)c1ccc(F)cc1F (stereo not drawn) [Example 14, 1-(2-acetoxyethyl)thio-2-(2,4-difluorophenyl)-1,1-difluoro-3-(1H-1,2,4-triazol-1-yl)propan-2-ol]
MIC [1]: 0.0313 µg/mL (≈ 0.0796 µM) | MIC [2]: 8 µg/mL (≈ 20.3 µM) | MIC [3]: 4 µg/mL (≈ 10.2 µM)

Structure (SMILES): O=S(=O)(CCO)C(F)(F)C(O)(Cn1cncn1)c1ccc(F)cc1F (stereo not drawn) [Example 20, 2-(2,4-difluorophenyl)-1,1-difluoro-1-(2-hydroxyethyl)sulfonyl-3-(1H-1,2,4-triazol-1-yl)propan-2-ol]
Mean survival days [4]: 14.0 days | Survival mice on 14-th day [4]: 5/5

Structure (SMILES): COCCS(=O)(=O)C(F)(F)C(O)(Cn1cncn1)c1ccc(F)cc1F (stereo not drawn) [Example 21, 2-(2,4-difluorophenyl)-1,1-difluoro-1-(2-methoxyethyl)sulfonyl-3-(1H-1,2,4-triazol-1-yl)propan-2-ol]
MIC [1]: 0.0625 µg/mL (≈ 0.157 µM) | MIC [2]: 16 µg/mL (≈ 40.3 µM) | MIC [3]: 32 µg/mL (≈ 80.5 µM) | Mean survival days [4]: 14.0 days | Survival mice on 14-th day [4]: 4/5

Structure (SMILES): OC(Cn1cncn1)(Cn1cncn1)c1ccc(F)cc1F [Fluconazole, reference compound]
MIC [1]: 0.25 µg/mL (≈ 0.816 µM) | MIC [2]: > 128 µg/mL | MIC [3]: > 128 µg/mL | Mean survival days [4]: 9.6 days | Survival mice on 14-th day [4]: 0/5

Second part, the compound after the results:

MIC [1]: 0.0156 µg/mL (≈ 0.0427 µM) | MIC [2]: 4 µg/mL (≈ 10.9 µM) | MIC [3]: 8 µg/mL (≈ 21.9 µM)
Structure (SMILES): COCCSC(F)(F)C(O)(Cn1cncn1)c1ccc(F)cc1F (stereo not drawn) [Example 15, 2-(2,4-difluorophenyl)-1,1-difluoro-1-(2-methoxyethyl)thio-3-(1H-1,2,4-triazol-1-yl)propan-2-ol]

MIC [1]: 0.25 µg/mL (≈ 0.712 µM) | MIC [2]: 64 µg/mL (≈ 182 µM) | MIC [3]: 64 µg/mL (≈ 182 µM)
Structure (SMILES): OCCSC(F)(F)C(O)(Cn1cncn1)c1ccc(F)cc1F (stereo not drawn) [Example 18, 2-(2,4-difluorophenyl)-1,1-difluoro-1-(2-hydroxyethyl)thio-3-(1H-1,2,4-triazol-1-yl)propan-2-ol]
